Assay results as given in EP0155244A2, “1-Ethyl-6-fluoro-7-(1H-pirrol-1-yl)-1,4-dihydro-4-oxoquinoline-3-carboxylic acid: preparation and antimicrobial activities” (priority 1985, dated 1985).
Values after ≈ are worked out from the molar mass of the structure shown. Like-named read-outs stand apart in the source and are kept apart here.

Key:
Gram-positive bacteria = assay: In vitro antibacterial activity, summary for Gram-positive bacteria; type: cell-based, Staphylococcus and Streptococcus
Protocol: (§1) Derivatives (1) and (9) were tested for the in vitro antibacterial activities against Gram-positive and Gram-negative bacteria.Nalidixic acid,pipemidic acid,- piromidic acid and enoxacin were used as positive controls for antibacterial activities.
(§2) Minimum inhibitory concentrations (M.I.C.s) were determined using the serial twolfold dilution method; lectures were performed after incubation at 37° for 18 hours.
(§3) For the experiments the substances were dissolved in NaOH 0.1 N(10 mg/ml);further dilutions in the test medium furnished the required concentrations, generally in the range from 0. 05µg/ml to 100 µg/ml.
(§4) The cultures were obtained on B.H.I. (B.B.L.) after 18 hours incubation at 37°.Tests were carried out using Mueller-Hinton agar (B.B.L.) and inocula were 10^4 bacteria.
(§5) Media M.I.C. values nX (c at least 200 max µg/ml) were calculated by the equation [formula] where si is the number of sensitive strains at the given concentration ci and st is the whole number of the sensitive strains.
(§6) Strains with M.I.C.>200µg/ml are regarded as resistant (R) and are expressed in percentage (%) by the equation : [formula] where N is the whole number of tested strains and N is t s the number of sensitive strains.
(§7) The following species of bacteria freshly isolated from various clinical specimens were tested: 16 strains of […], 10 strains of Staphylococcus spp, 15 strains of Streptococcus ovalis,3 strains of Streptococcus spp, 18 strains of Klebsiella pneumoniae,20 strains of Escherichia coli,ll strains of Salmonella spp (3 S.typhi,l S.paratyphi A,S.paratyphi B, 4 S enteritidis, 1 S.wien and S.infantis,42 strains of Proteus spp (28 P.mirabilis, 8 P.vulgaris,3 P.rettgeri,2 P.morganii and 1 Providencia ) and 8 strains of Pseudomonas aeruginosa.

Escherichia coli = assay: In vitro antibacterial activity, M.I.C. by serial twofold dilution method on Mueller-Hinton agar; type: cell-based; conditions: E.Coli, 20 strains, pH 7.2, reading 18 h after incubation at 37°C; for MIC: Escherichia coli
Protocol: as §1, §2, §3, §4, §5, §6, §7

Klebsiella pneumoniae = assay: as above; type: cell-based; conditions: 18 strains, pH 7.2, reading 18 h after incubation at 37°C
Protocol: as §1, §2, §3, §4, §5, §6, §7

Proteus spp = assay: as above; type: cell-based
Protocol: as §1, §2, §3, §4, §5, §6, §7

Pseudomonas aeruginosa = assay: as above; type: cell-based; conditions: for R% = percentage of resistant strains / MIC: Pseudomonas aeruginosa, 8 strains, pH 7.2, reading 18 h after incubation at 37°C
Protocol: as §1, §2, §3, §4, §5, §6, §7

Salmonella spp = assay: as above; type: cell-based; conditions: 11 strains, pH 7.2, reading 18 h after incubation at 37°C
Protocol: as §1, §2, §3, §4, §5, §6, §7

Staphylococcus pyogenes = assay: as above; type: cell-based; conditions: 16 strains, pH 7.2, reading 18 h after incubation at 37°C; for MIC: Staphylococcus aureus
Protocol: as §1, §2, §3, §4, §5, §6, §7

Staphylococcus spp = assay: as above; type: cell-based; conditions: 10 strains, pH 7.2, reading 18 h after incubation at 37°C
Protocol: as §1, §2, §3, §4, §5, §6, §7

Streptococcus ovalis = assay: as above; type: cell-based; conditions: 15 strains, pH 7.2, reading 18 h after incubation at 37°C
Protocol: as §1, §2, §3, §4, §5, §6, §7

Streptococcus spp = assay: as above; type: cell-based; conditions: 3 strains, pH 7.2, reading 18 h after incubation at 37°C
Protocol: as §1, §2, §3, §4, §5, §6, §7

Enterobacteriaceae = assay: In vitro antibacterial activity, summary for Enterobacteriaceae; type: cell-based
Protocol: as §1, §2, §3, §4, §5
Strains with M.I.C.>200µg/ml are regarded as resistant (R) and are expressed in percentage (%) by the equation : [formula] where N is the whole number of tested strains and N is t s the number of sensitive strains. […]

[1] = read-out: nX̄ = MIC mean values of sensitive strains
[2] = Proteus spp, 42 strains, pH 7.2, reading 18 h after incubation at 37°C
[3] = Proteus spp, 42 strains, pH 7.2, reading 18 h after incubation at 37°C, read-out: nX̄ = MIC mean values of sensitive strains

| Compound | R% (resistant strains) (Gram-positive bacteria) | R% = percentage of resistant strains (Escherichia coli) | MIC (Escherichia coli; [1]) | R% = percentage of resistant strains (Klebsiella pneumoniae) | R% = percentage of resistant strains (Proteus spp; [2]) | MIC (Proteus spp; [3]) | R% = percentage of resistant strains (Pseudomonas aeruginosa) | MIC (Pseudomonas aeruginosa; [1]) | R% = percentage of resistant strains (Salmonella spp) | MIC (Salmonella spp; [1]) | R% = percentage of resistant strains (Staphylococcus pyogenes) | MIC (Staphylococcus pyogenes; [1]) | R% = percentage of resistant strains (Staphylococcus spp) | MIC (Staphylococcus spp; [1]) | R% = percentage of resistant strains (Streptococcus ovalis) | MIC (Streptococcus ovalis; [1]) | MIC (Streptococcus spp; [1]) | MIC (Streptococcus spp; read-out: range (MIC)) | MIC (Klebsiella pneumoniae; [1]) | MIC (Klebsiella pneumoniae; read-out: range (MIC)) | also measured |
| --- | --- | --- | --- | --- | --- | --- | --- | --- | --- | --- | --- | --- | --- | --- | --- | --- | --- | --- | --- | --- | --- |
| CCn1cc(C(=O)O)c(=O)c2cc(F)c(N3CCNCC3)nc21 [enoxacin] | 0% |  |  |  |  |  |  |  |  |  |  |  |  |  |  |  |  |  |  |  |  |
| CCn1cc(C(=O)O)c(=O)c2cnc(N3CCCC3)nc21 [Piromidic acid, piromidic acid] |  | 45% | 44.3 µg/mL (≈ 154 µM) | 61% | 76% | 60 µg/mL (≈ 208 µM) | 50% | 38.7 µg/mL (≈ 134 µM) | 36% | 60.9 µg/mL (≈ 211 µM) | 69% | 11.2 µg/mL (≈ 38.8 µM) | 60% | 39.1 µg/mL (≈ 135 µM) | 87% | 100 µg/mL (≈ 347 µM) | 10.4 µg/mL (≈ 36.1 µM) | 6.25 to 12.5 µg/mL (≈ 21.7 to 43.4 µM) |  |  |  |
| CCn1cc(C(=O)O)c(=O)c2cnc(N3CCNCC3)nc21 [Pipemidic acid, pipemidic acid] |  | 30% | 4.12 µg/mL (≈ 13.6 µM) | 22% | 26% | 10.8 µg/mL (≈ 35.6 µM) | 0% | 12.3 µg/mL (≈ 40.6 µM) | 9% | 17.6 µg/mL (≈ 58 µM) | 44% | 36.4 µg/mL (≈ 120 µM) | 30% | 39.1 µg/mL (≈ 129 µM) | 66% | 65.6 µg/mL (≈ 216 µM) | 75 µg/mL (≈ 247 µM) | 25 to 100 µg/mL (≈ 82.4 to 330 µM) | 3.79 µg/mL (≈ 12.5 µM) |  | MIC (Pseudomonas aeruginosa; read-out: range (MIC)): 1.56 to 25 µg/mL (≈ 5.14 to 82.4 µM) |
| CCn1cc(C(=O)O)c(=O)c2cc(F)c(-n3cccc3)cc21 [Acid (1), l-Ethyl-6-fluoro-l,4-dihydro-4-oxo-7-(lH-pyrrol-l-yl)quinoline-3-carboxylic acid] | 0% |  | 2 µg/mL (≈ 6.66 µM) |  | 0% | 6.46 µg/mL (≈ 21.5 µM) | 12.5% | 5.6 µg/mL (≈ 18.6 µM) |  | 1.3 µg/mL (≈ 4.33 µM) |  | 1.96 µg/mL (≈ 6.53 µM) |  | 1.26 µg/mL (≈ 4.2 µM) |  | 8.4 µg/mL (≈ 28 µM) | 0.2 µg/mL (≈ 0.666 µM) | 0.2 µg/mL (≈ 0.666 µM) | 3.4 µg/mL (≈ 11.3 µM) | 0.8 to 25 µg/mL (≈ 2.66 to 83.3 µM) | MIC (Escherichia coli; read-out: range (MIC)): 0.2 to 12.5 µg/mL (≈ 0.666 to 41.6 µM); range (MIC) (Proteus spp; [2]): <0.1 to 100 µg/mL; activity against Proteus spp (in words) (Proteus spp; from comparative examination of R% and nX data): highly active; activity against Pseudomonas aeruginosa (in words) (Pseudomonas aeruginosa; from comparative examination of R% and nX data, not so active as enoxacin): very active; MIC (Salmonella spp; read-out: range (MIC)): 0.1 to 3.12 µg/mL (≈ 0.333 to 10.4 µM); MIC (Staphylococcus pyogenes; read-out: range (MIC)): 0.1 to 12.5 µg/mL (≈ 0.333 to 41.6 µM); MIC (Staphylococcus spp; read-out: range (MIC)): 0.1 to 3.12 µg/mL (≈ 0.333 to 10.4 µM); MIC (Streptococcus ovalis; read-out: range (MIC)): 0.8 to 100 µg/mL (≈ 2.66 to 333 µM); R% (resistant strains) (Enterobacteriaceae): 0% |
| CCn1cc(C(=O)O)c(=O)c2cc(F)c(N3CCCC3)cc21 [Acid (9), 1-Ethyl-6-fluoro-1,4-dihydro-4-oxo-7-(pyrrolidin-1-yl) quinoline-3-carboxylic acid] | 0% | 10% | 3.83 µg/mL (≈ 12.6 µM) |  | 7% | 4.76 µg/mL (≈ 15.6 µM) | 12.5% | 9.87 µg/mL (≈ 32.4 µM) |  | 2.78 µg/mL (≈ 9.14 µM) |  | 5.95 µg/mL (≈ 19.6 µM) |  | 3.98 µg/mL (≈ 13.1 µM) |  | 6.2 µg/mL (≈ 20.4 µM) | 2.2 µg/mL (≈ 7.23 µM) | 0.4 to 3.12 µg/mL (≈ 1.31 to 10.3 µM) | 12.7 µg/mL (≈ 41.6 µM) | 3.12 to 25 µg/mL (≈ 10.3 to 82.2 µM) | MIC (Salmonella spp; read-out: range (MIC)): 0.2 to 6.25 µg/mL (≈ 0.657 to 20.5 µM); MIC (Staphylococcus pyogenes; read-out: range (MIC)): 0.4 to 25 µg/mL (≈ 1.31 to 82.2 µM); MIC (Staphylococcus spp; read-out: range (MIC)): 0.8 to 6.25 µg/mL (≈ 2.63 to 20.5 µM); MIC (Streptococcus ovalis; read-out: range (MIC)): 3.12 to 25 µg/mL (≈ 10.3 to 82.2 µM); R% (resistant strains) (Enterobacteriaceae): 0% |
| CCn1cc(C(=O)O)c(=O)c2cc(F)c(N3CCNCC3)cc21 [Norfloxacin, norfloxacin] |  |  | 4.47 µg/mL (≈ 14 µM) |  | 0% | 8.1 µg/mL (≈ 25.4 µM) | 0% | 1.42 µg/mL (≈ 4.45 µM) |  | 2.66 µg/mL (≈ 8.33 µM) |  | 8.64 µg/mL (≈ 27.1 µM) |  | 4.79 µg/mL (≈ 15 µM) |  | 17.2 µg/mL (≈ 53.9 µM) | 3.6 µg/mL (≈ 11.3 µM) | 1.56 to 6.25 µg/mL (≈ 4.89 to 19.6 µM) | 1.93 µg/mL (≈ 6.04 µM) | 0.2 to 6.25 µg/mL (≈ 0.626 to 19.6 µM) | MIC (Escherichia coli; read-out: range (MIC)): 0.2 to 25 µg/mL (≈ 0.626 to 78.3 µM); MIC (Proteus spp; Proteus spp, 42 strains, pH 7.2, reading 18 h after incubation at 37°C, read-out: range (MIC)): 0.2 to 100 µg/mL (≈ 0.626 to 313 µM); MIC (Pseudomonas aeruginosa; read-out: range (MIC)): 0.4 to 3.12 µg/mL (≈ 1.25 to 9.77 µM); MIC (Salmonella spp; read-out: range (MIC)): 0.2 to 12.5 µg/mL (≈ 0.626 to 39.1 µM); MIC (Staphylococcus pyogenes; read-out: range (MIC)): 0.4 to 25 µg/mL (≈ 1.25 to 78.3 µM); MIC (Staphylococcus spp; read-out: range (MIC)): 0.2 to 25 µg/mL (≈ 0.626 to 78.3 µM); MIC (Streptococcus ovalis; read-out: range (MIC)): 0.8 to 100 µg/mL (≈ 2.51 to 313 µM) |
| CCn1cc(C(=O)O)c(=O)c2ccc(C)nc21 [Nalidixic acid, nalidixic acid] |  | 25% | 12.4 µg/mL (≈ 53.4 µM) | 22% | 33% | 6.58 µg/mL (≈ 28.3 µM) | 50% | 5.46 µg/mL (≈ 23.5 µM) | 18% | 5.2 µg/mL (≈ 22.4 µM) | 94% | 100 µg/mL (≈ 431 µM) | 50% | 25.6 µg/mL (≈ 110 µM) | 93% | 3.12 µg/mL (≈ 13.4 µM) |  | > 100 µg/mL | 12.9 µg/mL (≈ 55.5 µM) |  | R% = percentage of resistant strains (Streptococcus spp): 100% |
